Literature values, collected in paper PMC8480965 (The Journal of General Physiology, 2021).

What was measured:
[1] = tested on: Kv2.1; details: independent binding to each voltage sensor; ref Lee et al., 2003
[2] = tested on: Kv2.1; details: ref Tilley et al., 2019
[3] = tested on: Kv2.1; details: sphingomyelin converted to ceramide-1-phosphate; ref Milescu et al., 2009

Row | Substance | inhibition of total gating charge movement per voltage sensor bound [1] | V1/2 of gating charge–voltage (QV) relation ([2]; Kv2.1 in saturating GxTX) | z of gating charge–voltage (QV) relation ([2]; Kv2.1 in saturating GxTX) | stabilization of voltage sensor in resting conformation with GxTX bound ([2]; estimated previously) | deactivation rate of voltage sensors bound by GxTX [2] | mode of action on Kv2.1 [2] | enhancement of GxTX affinity for Kv2.1 by sphingomyelinase D [3]
1 | Hanatoxin | ~25% |  |  |  |  |  | 
2 | guangxitoxin-1E (EGECGGFWWKCGSGKPACCPKYVCSPKWGLCNFPMP; UniProt P84835 1-36, looked up) [GxTX] |  | 47 ± 1 mV | 1.6 ± 0.1 e0 | 5,400 fold | faster deactivation rate | partial inverse agonist of Kv2.1 | fourfold
